The source of these data is ChEMBL document CHEMBL1681749, “Antibacterial activities of imidazolium, pyrrolidinium and piperidinium salts” (2011).

Format in all cases: functional
One assay has as its system Staphylococcus aureus. In words: Antibacterial activity against Staphylococcus aureus subsp. aureus NBRC 15035 by agar-dilution method.
For a further assay, the system named is Bacillus subtilis. The assay is described as follows: Antibacterial activity against Bacillus subtilis 168 by agar-dilution method. The settings on record: subsp. subtilis str. 168.
For another assay, the system named is Escherichia coli. In words: Antibacterial activity against Escherichia coli MG1655 by agar-dilution method. The settings on record: K-12 substr. MG1655.
Another assay relates to Pseudomonas putida. The assay is described as follows: Antibacterial activity against Pseudomonas putida NBRC 14164 by agar-dilution method.

A value given as a limit tells only on which side of the number the result lay.

Consider `C[Si](C)(C)CCCCn1cc[n+](-c2ccc(-c3ccccc3)cc2)c1.[I-]`, for which the MIC turned out to be 0.39 µg/mL against Staphylococcus aureus, 1.56 µg/mL against Bacillus subtilis, 100 µg/mL in the assay with Escherichia coli and 100 µg/mL in the assay on Pseudomonas putida.

Turning to `C[Si](C)(C)CCCCCCCCCn1cc[n+](Cc2ccc(CC[Si](C)(C)C)cc2)c1.[I-]`, the minimum inhibitory concentration (MIC) in the assay with Staphylococcus aureus is greater than 6.25 µg/mL; in the assay on Bacillus subtilis, 6.25 µg/mL; with Escherichia coli, greater than 100 µg/mL; in the assay on Pseudomonas putida, greater than 100 µg/mL.

`CCCCCC#CC[n+]1ccn(CCCCCCCCCCC[Si](C)(C)C)c1C.[I-]`: the MIC was 1.56 µg/mL in the assay on Staphylococcus aureus, 1.56 µg/mL against Bacillus subtilis, greater than 100 µg/mL in the assay with Escherichia coli and greater than 100 µg/mL against Pseudomonas putida.

On to `CCCCCC#CC[n+]1ccn(CCCCC[Si](C)(C)C)c1C.[I-]`, for which the MIC is 0.39 µg/mL in the assay on Staphylococcus aureus, 0.39 µg/mL in the assay on Bacillus subtilis, 12.5 µg/mL in the assay on Escherichia coli and 50 µg/mL against Pseudomonas putida.

In the case of `CCCCCC#CC[N+]1(C)CCCCC1.[I-]`, the MIC against Staphylococcus aureus, in the assay with Bacillus subtilis, against Escherichia coli and in the assay with Pseudomonas putida was greater than 50 µg/mL throughout.

With `CCCCCC#CC[n+]1ccn(CCCCCCCCC)c1C.[I-]`, the MIC with Staphylococcus aureus was 0.78 µg/mL; with Bacillus subtilis, 0.78 µg/mL; against Escherichia coli, 12.5 µg/mL; against Pseudomonas putida, 50 µg/mL.

Consider `C[Si](C)(C)CCCCCCCn1cc[n+](Cc2ccc(CC[Si](C)(C)C)cc2)c1.[I-]`, for which the MIC is 1.56 µg/mL in the assay on Staphylococcus aureus, 1.56 µg/mL in the assay with Bacillus subtilis, greater than 100 µg/mL in the assay with Escherichia coli and greater than 100 µg/mL in the assay with Pseudomonas putida.

Take `CCCCCC#CC[n+]1ccn(CCCCCCCCC[Si](C)(C)C)c1.[I-]`: the minimum inhibitory concentration (MIC) against Staphylococcus aureus was 0.78 µg/mL; against Bacillus subtilis, 0.39 µg/mL; against Escherichia coli it was 100 µg/mL; in the assay on Pseudomonas putida, greater than 100 µg/mL.

Regarding `C[Si](C)(C)CCCCCn1cc[n+](Cc2ccc(CC[Si](C)(C)C)cc2)c1.[I-]`, the MIC in the assay with Staphylococcus aureus was 0.78 µg/mL; against Bacillus subtilis it was 0.78 µg/mL; with Escherichia coli it was greater than 100 µg/mL; against Pseudomonas putida, greater than 100 µg/mL.

With `CCCCCc1ccc(-[n+]2ccn(CCCC[Si](C)(C)C)c2)cc1.[I-]`, the minimum inhibitory concentration (MIC) turned out to be 0.39 µg/mL in the assay with Staphylococcus aureus, 0.39 µg/mL against Bacillus subtilis, 50 µg/mL in the assay on Escherichia coli and 100 µg/mL with Pseudomonas putida.

Consider `C[Si](C)(C)CCCCn1cc[n+](Cc2ccc(CC[Si](C)(C)C)cc2)c1.[I-]`, for which the MIC against Staphylococcus aureus was 0.39 µg/mL; in the assay with Bacillus subtilis it was 0.39 µg/mL; against Escherichia coli it was greater than 100 µg/mL; against Pseudomonas putida it was 100 µg/mL.

Turning to `CCCCCC#CC[N+]1(CCCCC[Si](C)(C)C)CCCCC1.[I-]`, the minimal inhibitory concentration (MIC) against Staphylococcus aureus is 1.56 µg/mL; in the assay on Bacillus subtilis it was 1.56 µg/mL; against Escherichia coli it was 50 µg/mL; in the assay on Pseudomonas putida, 100 µg/mL.

On to `CCCCCC#CC[n+]1ccn(CCCCCCCCCCC)c1C.[I-]`, for which the MIC was determined as 0.39 µg/mL in the assay with Staphylococcus aureus, 0.39 µg/mL against Bacillus subtilis, 3.13 µg/mL against Escherichia coli and 50 µg/mL with Pseudomonas putida.

Consider `CCCCCC#CC[n+]1ccn(CCCCCCC[Si](C)(C)C)c1.[I-]`, for which the MIC against Staphylococcus aureus amounted to 0.78 µg/mL; against Bacillus subtilis, 0.39 µg/mL; against Escherichia coli, 25 µg/mL; in the assay with Pseudomonas putida, 100 µg/mL.

With `C[Si](C)(C)CCCCCCn1cc[n+](Cc2ccc(CC[Si](C)(C)C)cc2)c1.[I-]`, the minimal inhibitory concentration (MIC) is 1.56 µg/mL in the assay with Staphylococcus aureus, 1.56 µg/mL against Bacillus subtilis, greater than 100 µg/mL in the assay on Escherichia coli and greater than 100 µg/mL with Pseudomonas putida.

For the molecule `CCCCCC#CC[n+]1ccn(CCCCCCCCCC)c1C.[I-]`, the MIC worked out at 0.39 µg/mL in the assay with Staphylococcus aureus, 0.78 µg/mL with Bacillus subtilis, 3.13 µg/mL against Escherichia coli and 50 µg/mL in the assay with Pseudomonas putida.

In the case of `CCCCCCCCCCCCCCCC[n+]1ccn(Cc2ccccc2)c1C.[I-]`, the results for the minimal inhibitory concentration (MIC) against Bacillus subtilis and against Escherichia coli were 1.56 µg/mL and 3.13 µg/mL, respectively.

Take `CCCCCC#CC[N+]1(CCCCC[Si](C)(C)C)CCCC1.[I-]`: the MIC with Staphylococcus aureus was 1.56 µg/mL; in the assay with Bacillus subtilis it was 1.56 µg/mL; against Escherichia coli, greater than 50 µg/mL; in the assay on Pseudomonas putida it was greater than 50 µg/mL.

Regarding `CCCCCC#CC[n+]1ccn(CCCCCCCCCCCC)c1C.[I-]`, the MIC against Staphylococcus aureus was found to be 0.39 µg/mL; against Bacillus subtilis it was 0.39 µg/mL; with Escherichia coli, 6.25 µg/mL; against Pseudomonas putida, 50 µg/mL.

As for `CCCCCC#CC[n+]1ccn(CCCC[Si](C)(C)C)c1C.[I-]`, the minimum inhibitory concentration (MIC) against Staphylococcus aureus is 1.56 µg/mL; with Bacillus subtilis, 1.56 µg/mL; in the assay on Escherichia coli it was 50 µg/mL; against Pseudomonas putida it was 100 µg/mL.

Regarding `CCCCCC#CC[n+]1ccn(CCCCCCCCCCCC)c1.[I-]`, the minimum inhibitory concentration (MIC) in the assay with Staphylococcus aureus was 0.39 µg/mL; in the assay with Bacillus subtilis, 0.39 µg/mL; against Escherichia coli it was 25 µg/mL; against Pseudomonas putida, 50 µg/mL.

For the molecule `CCCCCC#CC[n+]1ccn(CCCCCCCCCCCCCC)c1C.[I-]`, the minimum inhibitory concentration (MIC) with Staphylococcus aureus is 0.78 µg/mL; in the assay on Bacillus subtilis, 0.78 µg/mL; with Escherichia coli, 100 µg/mL; against Pseudomonas putida, greater than 100 µg/mL.

For `CCCCCCCC[n+]1ccn(CCCC[Si](C)(C)C)c1.[I-]`, the MIC in the assay on Staphylococcus aureus was 3.13 µg/mL; in the assay on Bacillus subtilis, 1.56 µg/mL; against Escherichia coli, 50 µg/mL; in the assay on Pseudomonas putida it was greater than 100 µg/mL.

As to `CCCCCC#CC[n+]1ccn(CCCC[Si](C)(C)C)c1.[I-]`, the MIC came to 3.13 µg/mL with Staphylococcus aureus, 1.56 µg/mL against Bacillus subtilis, 50 µg/mL in the assay with Escherichia coli and 100 µg/mL against Pseudomonas putida.

As for `CCCCCC#CC[N+]1(C)CCCC1.[I-]`, the MIC against Staphylococcus aureus, in the assay with Bacillus subtilis, with Escherichia coli and against Pseudomonas putida was greater than 50 µg/mL each time.

For `CCCCCC#CC[n+]1ccn(CCCCCC[Si](C)(C)C)c1C.[I-]`, the minimal inhibitory concentration (MIC) is 0.39 µg/mL with Staphylococcus aureus, 0.39 µg/mL in the assay on Bacillus subtilis, 12.5 µg/mL in the assay on Escherichia coli and 50 µg/mL against Pseudomonas putida.

Take `CCCCCC#CC[n+]1ccn(CCCCCCCCC[Si](C)(C)C)c1C.[I-]`: the MIC in the assay with Staphylococcus aureus was 0.78 µg/mL; with Bacillus subtilis, 0.39 µg/mL; in the assay with Escherichia coli, 100 µg/mL; with Pseudomonas putida, 100 µg/mL.

`C#CC[n+]1ccn(CCCC[Si](C)(C)C)c1.[I-]`: the minimum inhibitory concentration (MIC) with Staphylococcus aureus is 100 µg/mL; against Bacillus subtilis it was greater than 100 µg/mL; in the assay on Escherichia coli, greater than 100 µg/mL; with Pseudomonas putida, greater than 100 µg/mL.

As to `CCCCCC#CC[n+]1ccn(CCCCC[Si](C)(C)C)c1.[I-]`, the MIC against Staphylococcus aureus came to 0.78 µg/mL; against Bacillus subtilis it was 0.39 µg/mL; against Escherichia coli, 25 µg/mL; against Pseudomonas putida, 100 µg/mL.

With `CCCCCC#CC[n+]1ccn(CCCCCCCCCCCCCCCC)c1C.[I-]`, the minimum inhibitory concentration (MIC) was 1.56 µg/mL with Staphylococcus aureus, 1.56 µg/mL in the assay on Bacillus subtilis, greater than 100 µg/mL with Escherichia coli and greater than 100 µg/mL in the assay on Pseudomonas putida.

Consider `CCCCCC#CC[n+]1ccn(CCCCCCC[Si](C)(C)C)c1C.[I-]`, for which the MIC in the assay on Staphylococcus aureus was 0.39 µg/mL; against Bacillus subtilis, 0.39 µg/mL; against Escherichia coli, 12.5 µg/mL; against Pseudomonas putida, 100 µg/mL.

The term MIC denotes the lowest concentration that inhibits growth of the organism.
